Test results as given in patent publication US20040038952A1, “Pharmaceutical compositions for treatment of digestive disorders and associated diseases” (priority 2000, published 2004).
Entries after “also recorded” stand apart in the source; their conditions may differ.

Legend:
[1] = tested on: Dry eye model in Wistar rats by retrobulbar injection of capsaicin; test: Topical treatment of "dry eye": capsaicin dry eye model; format: in vivo; conditions: one drop 3 times per day
Method: Dry eye model was created in 16 Wistar rats in one eye by retrobulbar injection of capsaicin as it was published in [Camras PCB, Bito L Z: The pathophysiological effects of nitrogen mustard on the rabbit eye. II. The inhibition of the initial hypersensitive phase by capsaicin and the apparent role of substance P. Invest Ophthaimol Vis Sci. 19, 423-8 (1980)], while the other eye (control) was not treated at all.
The following treatments were applied:
A treatment: 4 rats were treated with topical artificial tear drops, one drop 3 times per day;
B treatment: 4 rats were treated with the composition of Example 10, one drop 3 times per day,
C treatment: 4 rats were treated with the composition of Example 10, one drope 3 times per day+one drop of vitamin A 3 times per day (oil drop; 30 000 IU/ml),
D treatment: 4 rats were treated with vitamin A, one drop 3 times per day (oil drop 30 000 IU/ml).
The condition of eyes were registered as written in the literature and evaluated 4 weeks after treatment on the following scale:
1=punctiform ephitelial loss of the cornea;
2=large ephitelial loss of the cornea with mild corneal edema;
3=large ephitelial loss of the cornea with severe corneal edema.

[2] = tested on: female patients affected by digestive disorders, "dry eye" syndrome and premenstrual syndrome; test: Treatment of premenstrual symptoms; format: in vivo, human
Method: (§1) 72 female patients affected by digestive disorders, “dry eye” syndrome and premenstrual syndrome were treated Intramuscularly administered vitamin A improved the symptoms of “dry eye” and premenstral syndrome, but it was ineffective by peroral administration.
(§2) Treatment A: 300.000 IU vitamin A in oil intramuscular administration ones per months,
(§3) Treatment B: 50.000 IU vitamin A acetate dragée peroral administration, once every second day,
(§4) Treatment C: 50.000 IU vitamin A acetate dragée peroral administration, once every second day+composition of the invention (Example 4).
Symptoms of the premenstrual syndrome: food (sweets or chocolate) craving, exhaustion, irritability, fearfullness, anxiety or depression, hostility, feeling out of control, confusion, sleep disturbances, acne, fluid retention, weight gain, breast swelling, aches and pains, bloating, constipation or diarrhoea.
The number of patients, methods of treatment and the grade of evaluation were the same as shown in experiment 3.

[3] = tested on: female patients affected by digestive disorders, "dry eye" syndrome and premenstrual syndrome; test: Improvement of activity of fat-soluble substances: "dry eye" syndrome symptoms; format: in vivo, human
Method: as §1
The subjective symptoms were evaluated by questionairs by using the following grade:
“Dry eye” syndrome has the following symptoms: sensation of dryness, foreign body, tired eye, soreness, scatchiness, burning, reduced tearing of emotion, difficulties of opening the eye upon waking, episodes of excessive tearing, particular sensibility to wind, air conditioning, smoking, topical medication. Objective signs: particulate matter on the ocular surface, mucusthread at the inner canthus or in the lower fornix, deposits at the orefices of the meibomian glands, filamentary keratitis, hyperemia of the bulbar conjunctiva, papillary hypertrophy of the tarsal conjunctiva, thin tear meniscus, decreased brightness of the bulbar conjunctiva, frequent blinking, tear film abnormalities with fluorescein staining.
The patients were treated as follows:
as §2, §3, §4

[4] = tested on: patients affected by either non-ulcer dyspepsia, biliary dyskinesis or irritable bowel syndrome; test: Open clinical study in digestive disorders: subjective gastrointestinal symptoms, grade 0-3; format: in vivo, human; conditions: total number of points/number of patients, 3 months, control group value in brackets
Method: (§5) In these studies 48 patients affected by either non-ulcer dyspepsia, biliary dyskinesis or irritable bowel syndrome were involved. 24 patients with unrestricted fat diet received only 150 mg of ursodeoxycholic acid (group A) and 24 patients only bioflavonoid (300 mg of quercetin) (group B) for 3 months. After one-month washout both groups received ursodeoxycholic acid+quercetin (Example 2) (group C) for another 3 months.
The gastrointestinal symptoms (postprandial early satiety, abdominal distention or bloating, nausea, vomitus, diarrhea, constipation) were evaluated by using the following grading system:
The treatments A, B and C shown in point 1 were used. In Table 2 the average complaint ratio related to one patient was given (average complaint ratio=total number of points/number of patients). The values of the control groups are given in brackets.

[5] = tested on: patients affected by either non-ulcer dyspepsia, biliary dyskinesis or irritable bowel syndrome; test: Open clinical study in digestive disorders: overall (psychosomatic) condition; format: in vivo, human; conditions: % of cases, 3 months, group A 150 mg ursodeoxycholic acid, group B 300 mg quercetin, group C Example 2; for Overall (psychosomatic) condition: Improved: unrestricted fat diet
From the text: The patients treated with the composition of the invention during or at the end of the meals were able to digest any type of foods including heavy or spicy ones. […] The improvement of the symptoms of patients treated with the composition of Example 2 was higher than that of the bile acid or bioflavonoid treatment alone.
as §5
The overall (psychosomatic) condition and subjective symptoms were compared to the results of an age and sex matched control group.
The evaluation of the psychosomatic condition: improved, unchanged, worsened.

[6] = Treatment A: 300.000 IU vitamin A in oil, intramuscular, once per month
[7] = peroral, 50.000 IU vitamin A acetate dragée once every second day (Treatment B alone, Treatment C + Example 4)

Molecule | Diarrhoea/constipation, average complaint ratio [4] | Meteorism, average complaint ratio [4] | Nausea, average complaint ratio [4] | Satiety, average complaint ratio [4] | Vomitus, average complaint ratio [4] | Overall (psychosomatic) condition: Unchanged or worsened [5] | Overall (psychosomatic) condition: Improved [5] | further results
vitamin A | – | – | – | – | – | – | – | Improvement of eye alteration (in words) ([1]; compared to artificial tear drops): not significant; Reduced eye alteration compared to treatment with artificial tear drop (treatment A) ([1]; evaluated 4 weeks after treatment on scale 0-3, vitamin A oil drop 30 000 IU/ml): <5%; Premenstrual symptoms: Improved [2, 6]: 72%; Premenstrual symptoms: Unchanged [2, 6]: 28%; Symptoms of premenstrual syndrome, in words ([2]; intramuscular administration): improved; Symptoms of premenstrual syndrome, in words ([2]; peroral administration): ineffective; also recorded: hardly improve; "Dry eye" symptoms: Improved [3, 6]: 80%; "Dry eye" symptoms: Unchanged [3, 6]: 20%; Symptoms of "dry eye", in words ([3]; intramuscular administration): improved; Symptoms of "dry eye", in words ([3]; peroral administration): ineffective; also recorded: improved only weakly
CC(=O)OC/C=C(C)/C=C/C=C(C)/C=C/C1=C(C)CCCC1(C)C [vitamin A acetate] | – | – | – | – | – | – | – | Premenstrual symptoms: Improved [2, 7]: 8%; Premenstrual symptoms: Unchanged [2, 7]: 92%; "Dry eye" symptoms: Improved [3, 7]: 12%; "Dry eye" symptoms: Unchanged [3, 7]: 88%
C[C@H](CCC(=O)O)[C@H]1CC[C@H]2[C@@H]3[C@@H](O)C[C@@H]4C[C@H](O)CC[C@]4(C)[C@H]3CC[C@]12C [ursodeoxycholic acid] | 2.19 (2.54) | 2.12 (2.78) | 0.83 (1.17) | 2.06 (2.92) | 0.12 (0.83) | 33% | 67% | –
O=c1c(O)c(-c2ccc(O)c(O)c2)oc2cc(O)cc(O)c12 [quercetin] | 0.63 (2.54) | 1.96 (2.33) | 0.92 (1.25) | 2.04 (2.86) | 0.46 (0.75) | 55% | 45% | –
